Results published in patent US20060052365A1, “Protease inhibitors” (priority 2002, published 2006).

| Structure (SMILES) | melting point |
| --- | --- |
| CS(=O)(=O)N1CCCC(NC(=O)[C@H](CC2CCCC2)NC(=O)c2ccco2)C(=O)C1 (stereo partly drawn) [Example 65, Furan-2-carboxylic acid [(S)-2-cyclopentyl-1-(1-methanesulfonyl-3-oxo-azepan-4ylcarbamoyl)-ethyl]-amide] | 167 to 170 °C |
| CS(=O)(=O)N1CCCC(NC(=O)[C@H](CC2CCCC2)NC(=O)c2ccco2)C(=O)C1 (stereo partly drawn) [Example 66, Furan-2-carboxylic acid [(S)-2-cyclopentyl-1-(1-methanesulfonyl-3-oxo-azepan-4-ylcarbamoyl)-ethyl]-amide] | 158 to 161 °C |
| O=C(N[C@@H](CC1CCCC1)C(=O)NC1CCCN(S(=O)(=O)c2ccccc2)CC1=O)c1ccco1 (stereo partly drawn) [Example 67, Furan-2-carboxylic acid [(S)-1-(1-benzenesulfonyl-3-oxo-azepan-4 ylcarbamoyl)-2-cyclopentyl-ethyl]-amide] | 88 to 90 °C |
| O=C(N[C@@H](CC1CCCC1)C(=O)NC1CCCN(S(=O)(=O)c2ccccc2)CC1=O)c1ccco1 (stereo partly drawn) [Example 68, Furan-2-carboxylic acid [(S)-1-(1-benzenesulfonyl-3-oxo-azepan-4-ylcarbamoyl)-2-cyclopentyl-ethyl]-amide] | 166 to 167 °C |
| O=C(N[C@@H](CC1CCCC1)C(=O)NC1CCCN(C(=O)c2ccco2)CC1=O)c1ccco1 (stereo partly drawn) [Example 69, Furan-2-carboxylic acid {(S)-2-cyclopentyl-1-[1-(1-furan-2-yl-methanoyl)-3-oxo-azepan-4-ylcarbamoyl]-ethyl}-amide] | 88 to 89 °C |
| O=C(N[C@@H](CC1CCCC1)C(=O)NC1CCCN(C(=O)c2ccccc2)CC1=O)c1ccco1 (stereo partly drawn) [Example 71, Furan-2-carboxylic acid {(S)-2-cyclopentyl-1-[3-oxo-1-(1-phenyl-methanoyl)-azepan-4-ylcarbamoyl]-ethyl}-amide] | 101 to 103 °C |
| O=C(N[C@@H](CC1CCCC1)C(=O)NC1CCCN(C(=O)c2ccccc2)CC1=O)c1ccco1 (stereo partly drawn) [Example 72, Furan-2-carboxylic acid {(S)-2-cyclopentyl-1-[3-oxo-1-(1-phenyl-methanoyl)-azepan-4-ylcarbamoyl]-ethyl}-amide] | 97 to 100 °C |

More lines, now with the values ahead:

| melting point | Structure (SMILES) |
| --- | --- |
| 72 to 74 °C | O=C(N[C@@H](CC1CCCC1)C(=O)NC1CCCN(C(=O)OCc2ccccc2)CC1=O)c1ccco1 (stereo partly drawn) [Example 61, 4-{(S)-3-Cyclopentyl-2-[(1-furan-2-yl-methanoyl)-amino]-propanoylamino}-3-oxo-azepane-1-carboxylic acid benzyl ester] |
| 66 to 68 °C | O=C(N[C@@H](CC1CCCC1)C(=O)NC1CCCN(C(=O)OCc2ccccc2)CC1=O)c1ccco1 (stereo partly drawn) [Example 62, 4-{(S)-3-Cyclopentyl-2-[(1-furan-2-yl-methanoyl)-amino]-propanoylamino)-3-oxo-azepane-1-carboxylic acid benzyl ester] |
| 81 to 84 °C | O=C(N[C@@H](CC1CCCC1)C(=O)NC1CCCN(S(=O)(=O)c2ccccn2)CC1=O)c1ccco1 (stereo partly drawn) [Example 63, Furan-2-carboxylic acid {(S)-2-cyclopentyl-1-[3-oxo-1-(pyridine-2-sulfonyl)-azepan-4-ylcarbamoyl]ethyl}-amide] |
| 77 to 80 °C | O=C(N[C@@H](CC1CCCC1)C(=O)NC1CCCN(S(=O)(=O)c2ccccn2)CC1=O)c1ccco1 (stereo partly drawn) [Example 64, Furan-2-carboxylic acid {(S)-2-cyclopentyl-1-[3-oxo-1-(pyridine-2-sulfonyl)-azepan-4-ylcarbamoyl]ethyl}-amide] |
| 85 to 88 °C | O=C(N[C@@H](CC1CCCC1)C(=O)NC1CCCN(C(=O)c2ccco2)CC1=O)c1ccco1 (stereo partly drawn) [Example 70, Furan-2-carboxylic acid {(S)-2-cyclopentyl-1-[1-(1-furan-2-yl-methanoyl)-3-oxo-azepan-4-ylcarbamoyl]-ethyl}-amide] |
